From PMC2248166, “Quantitative peptide binding motifs for 19 human and mouse MHC class I molecules derived using positional scanning combinatorial peptide libraries” (Immunome Research, 2008)
Where a SMILES comes first, the peptide text is derived from it.

Target: HLA A*3001 (Homo sapiens, UniProt P04439, D140H/D185E/E176W/F33S/G80R/H175R/K168Q/R138E/R41S)
Assay: biochemical
Assay type: binding

HLA A*3001, sequence (P04439 25-365 limits assumed, stated change not applied): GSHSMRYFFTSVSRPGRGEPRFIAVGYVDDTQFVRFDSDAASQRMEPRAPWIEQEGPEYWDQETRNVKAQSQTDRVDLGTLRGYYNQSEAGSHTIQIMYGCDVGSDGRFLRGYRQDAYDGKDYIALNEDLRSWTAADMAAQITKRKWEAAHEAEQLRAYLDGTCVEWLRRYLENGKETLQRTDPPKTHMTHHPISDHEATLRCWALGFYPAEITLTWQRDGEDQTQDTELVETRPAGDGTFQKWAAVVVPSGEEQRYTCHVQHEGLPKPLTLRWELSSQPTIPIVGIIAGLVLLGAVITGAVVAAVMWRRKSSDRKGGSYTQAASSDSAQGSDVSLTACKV

| Structure (SMILES) | IC50 [nM] |
| --- | --- |
| CC[C@H](C)[C@H](NC(=O)[C@H](Cc1ccc(O)cc1)NC(=O)[C@H](CC(C)C)NC(=O)[C@@H]1CCCN1C(=O)[C@H](CC(=O)O)NC(=O)[C@H](CCCNC(=N)N)NC(=O)[C@@H](NC(=O)[C@@H](N)CCSC)[C@@H](C)O)C(=O)N[C@@H](Cc1ccc(O)cc1)C(=O)O [3102.0147] (H-MTRDPLYIY-OH) | 17 |
| C[C@H](N)C(=O)N[C@H](C(=O)N[C@@H](C)C(=O)N[C@@H](CCCNC(=N)N)C(=O)N[C@@H](CO)C(=O)N[C@@H](CO)C(=O)N1CCC[C@H]1C(=O)N[C@@H](CCC(=O)O)C(=O)N[C@@H](CCCCN)C(=O)O)[C@@H](C)O [3102.0148] (H-ATARSSPEK-OH) | 0.58 |
| CSCC[C@H](N)C(=O)N[C@H](C(=O)N[C@@H](CCCNC(=N)N)C(=O)N[C@@H](CC(C)C)C(=O)N1CCC[C@H]1C(=O)N[C@@H](Cc1ccc(O)cc1)C(=O)N[C@@H](CCCCN)C(=O)N[C@@H](CC(=O)O)C(=O)N[C@@H](C)C(=O)O)C(C)C [3102.0149] (H-MVRLPYKDA-OH) | 0.76 |
| CC[C@H](C)[C@H](NC(=O)[C@H](CC(N)=O)NC(=O)[C@@H](NC(=O)[C@H](CC(N)=O)NC(=O)[C@H](CCCCN)NC(=O)[C@H](CO)NC(=O)[C@@H](N)CCCCN)[C@@H](C)CC)C(=O)N[C@@H](CCC(=O)O)C(=O)N[C@H](C(=O)O)C(C)C [3102.0150] (H-KSKNINIEV-OH) | 0.32 |
| CC[C@H](C)[C@H](NC(=O)[C@H](CC(=O)O)NC(=O)[C@H](CC(C)C)NC(=O)[C@@H](NC(=O)[C@@H](N)CCCCN)[C@@H](C)O)C(=O)N[C@@H](CO)C(=O)N[C@@H](CO)C(=O)N[C@@H](Cc1ccccc1)C(=O)N[C@@H](Cc1ccc(O)cc1)C(=O)O [3102.0151] (H-KTLDISSFY-OH) | 23 |
| CC(C)[C@H](NC(=O)[C@H](CO)NC(=O)[C@@H](NC(=O)[C@H](Cc1ccc(O)cc1)NC(=O)[C@@H](NC(=O)[C@H](Cc1ccccc1)NC(=O)[C@H](CCCCN)NC(=O)[C@H](CO)NC(=O)[C@H](C)N)C(C)C)C(C)C)C(=O)O [3102.0152] (H-ASKFVYVSV-OH) | 3.1 |
| CC[C@H](C)[C@H](NC(=O)[C@H](CCCCN)NC(=O)[C@H](CO)NC(=O)[C@@H](NC(=O)[C@@H](NC(=O)[C@H](CCCCN)NC(=O)[C@H](CCCNC(=N)N)NC(=O)[C@@H](NC(=O)[C@@H](N)CCCCN)C(C)C)[C@@H](C)CC)[C@@H](C)CC)C(=O)O [3102.0153] (H-KVRKIISKI-OH) | 27 |
| CC(C)C[C@H](NC(=O)[C@H](Cc1ccc(O)cc1)NC(=O)[C@H](CCCNC(=N)N)NC(=O)[C@@H](NC(=O)[C@@H](N)CCCNC(=N)N)C(C)C)C(=O)N[C@H](C(=O)N[C@@H](CCCNC(=N)N)C(=O)N[C@@H](CC(N)=O)C(=O)N[C@@H](Cc1ccc(O)cc1)C(=O)O)[C@@H](C)O [3102.0155] (H-RVRYLTRNY-OH) | 5.6 |
| CC(C)C[C@H](NC(=O)[C@H](Cc1ccccc1)NC(=O)[C@@H](NC(=O)CNC(=O)[C@H](Cc1ccc(O)cc1)NC(=O)[C@H](CCCNC(=N)N)NC(=O)[C@H](Cc1ccc(O)cc1)NC(=O)[C@@H](N)CCCCN)[C@@H](C)O)C(=O)N[C@@H](Cc1ccc(O)cc1)C(=O)O [3102.0156] (H-KYRYGTFLY-OH) | 1.1 |
| CC[C@H](C)[C@H](NC(=O)[C@@H](N)CO)C(=O)N[C@@H](CCCNC(=N)N)C(=O)N[C@@H](CCCNC(=N)N)C(=O)N[C@@H](CC(N)=O)C(=O)N[C@@H](CC(C)C)C(=O)N[C@@H](C)C(=O)N[C@@H](CC(C)C)C(=O)N[C@@H](CCCCN)C(=O)O [3102.0157] (H-SIRRNLALK-OH) | 12 |
| CC(C)C[C@H](NC(=O)[C@H](CC(C)C)NC(=O)[C@H](CCCNC(=N)N)NC(=O)[C@@H](NC(=O)[C@@H](N)CO)C(C)C)C(=O)N[C@@H](CC(N)=O)C(=O)N[C@@H](Cc1ccc(O)cc1)C(=O)N[C@@H](Cc1ccccc1)C(=O)N[C@@H](CCCCN)C(=O)O [3102.0158] (H-SVRLLNYFK-OH) | 0.24 |
| CC[C@H](C)[C@H](NC(=O)[C@H](CO)NC(=O)[C@@H](NC(=O)[C@@H](N)CCCCN)C(C)C)C(=O)N[C@@H](CC(C)C)C(=O)N[C@@H](Cc1c[nH]cn1)C(=O)N1CCC[C@H]1C(=O)N[C@H](C(=O)N[C@@H](CO)C(=O)O)[C@@H](C)CC [3102.0159] (H-KVSILHPIS-OH) | 11 |
| CC[C@H](C)[C@H](NC(=O)[C@H](C)N)C(=O)N[C@@H](CCCNC(=N)N)C(=O)N[C@@H](C)C(=O)NCC(=O)N[C@@H](Cc1ccc(O)cc1)C(=O)N[C@@H](CO)C(=O)N[C@H](C(=O)N[C@H](C(=O)O)C(C)C)[C@@H](C)CC [3102.0160] (H-AIRAGYSIV-OH) | 1.4 |
| CC(C)C[C@H](NC(=O)[C@H](CC(N)=O)NC(=O)[C@H](CC(C)C)NC(=O)[C@H](Cc1c[nH]c2ccccc12)NC(=O)[C@H](CO)NC(=O)[C@H](CC(N)=O)NC(=O)[C@H](CCCCN)NC(=O)[C@H](C)NC(=O)[C@@H](N)CO)C(=O)O [3102.0164] (H-SAKNSWLNL-OH) | 0.57 |
| CC[C@H](C)[C@H](NC(=O)[C@@H]1CCCN1C(=O)[C@H](CCCCN)NC(=O)[C@@H](NC(=O)[C@@H](N)CCCNC(=N)N)[C@@H](C)O)C(=O)N[C@@H](CO)C(=O)N[C@@H](CCSC)C(=O)N[C@@H](Cc1ccc(O)cc1)C(=O)N[C@@H](Cc1ccccc1)C(=O)O [3102.0165] (H-RTKPISMYF-OH) | 0.6 |
| CC[C@H](C)[C@H](NC(=O)[C@H](CO)NC(=O)[C@@H](NC(=O)[C@H](CCC(N)=O)NC(=O)[C@H](CCCCN)NC(=O)[C@@H](NC(=O)[C@@H](N)CCCNC(=N)N)C(C)C)[C@@H](C)CC)C(=O)N[C@@H](CO)C(=O)N[C@H](C(=O)O)[C@@H](C)O [3102.0166] (H-RVKQISIST-OH) | 0.37 |
| CC(C)C[C@H](NC(=O)[C@H](CO)NC(=O)[C@@H]1CCCN1C(=O)[C@H](CC(C)C)NC(=O)[C@H](Cc1ccc(O)cc1)NC(=O)[C@H](CCCNC(=N)N)NC(=O)[C@@H](NC(=O)[C@@H](N)CCCNC(=N)N)[C@@H](C)O)C(=O)N[C@H](C(=O)O)C(C)C [3102.0167] (H-RTRYLPSLV-OH) | 0.49 |
| C[C@@H](O)[C@H](N)C(=O)N[C@H](C(=O)N[C@@H](CCCCN)C(=O)N[C@@H](CC(=O)O)C(=O)N[C@@H](Cc1ccc(O)cc1)C(=O)N[C@@H](Cc1ccccc1)C(=O)N[C@@H](CO)C(=O)N[C@@H](Cc1ccccc1)C(=O)N[C@@H](CCCCN)C(=O)O)[C@@H](C)O [3102.0168] (H-TTKDYFSFK-OH) | 1.2 |
| CC[C@H](C)[C@H](NC(=O)[C@@H](NC(=O)[C@@H](N)CCCNC(=N)N)[C@@H](C)O)C(=O)N[C@@H](CS)C(=O)N[C@H](C(=O)N[C@@H](CC(C)C)C(=O)N1CCC[C@H]1C(=O)N[C@@H](Cc1ccc(O)cc1)C(=O)N[C@@H](CC(C)C)C(=O)O)[C@@H](C)O [3102.0170] (H-RTICTLPYL-OH) | 0.74 |
| CC(C)C[C@H](NC(=O)[C@H](Cc1ccc(O)cc1)NC(=O)[C@H](CO)NC(=O)[C@H](CO)NC(=O)[C@H](CO)NC(=O)[C@@H](NC(=O)[C@@H](N)CO)[C@@H](C)O)C(=O)N[C@@H](Cc1ccc(O)cc1)C(=O)N[C@@H](C)C(=O)O [3102.0171] (H-STSSSYLYA-OH) | 13 |
| CSCC[C@H](NC(=O)[C@H](CCCCN)NC(=O)[C@H](CCCCN)NC(=O)[C@H](Cc1ccc(O)cc1)NC(=O)[C@H](CCCNC(=N)N)NC(=O)[C@H](C)NC(=O)[C@@H](N)CCCNC(=N)N)C(=O)N[C@@H](CC(C)C)C(=O)N[C@@H](CCCCN)C(=O)O [3102.0172] (H-RARYKKMLK-OH) | 1 |
| CSCC[C@H](N)C(=O)N[C@@H](CC(C)C)C(=O)N[C@@H](CCCNC(=N)N)C(=O)N[C@@H](Cc1ccccc1)C(=O)N[C@@H](C)C(=O)N[C@@H](CC(N)=O)C(=O)N1CCC[C@H]1C(=O)N[C@@H](CC(C)C)C(=O)N[C@@H](CO)C(=O)O [3102.0173] (H-MLRFANPLS-OH) | 0.17 |
| CSCC[C@H](NC(=O)[C@H](CCC(=O)O)NC(=O)[C@H](CO)NC(=O)[C@H](CC(C)C)NC(=O)[C@H](CCCNC(=N)N)NC(=O)[C@@H](NC(=O)[C@@H](N)CCCCN)[C@@H](C)O)C(=O)N[C@@H](CC(C)C)C(=O)N[C@@H](CO)C(=O)O [3102.0174] (H-KTRLSEMLS-OH) | 0.45 |
| CC(C)[C@H](NC(=O)[C@H](CO)NC(=O)[C@H](CCCNC(=N)N)NC(=O)[C@H](Cc1ccccc1)NC(=O)[C@H](CCCNC(=N)N)NC(=O)[C@H](Cc1ccccc1)NC(=O)[C@@H](N)CCCNC(=N)N)C(=O)N[C@@H](Cc1ccc(O)cc1)C(=O)NCC(=O)O [3102.0175] (H-RFRFRSVYG-OH) | 0.36 |
| C[C@H](NC(=O)[C@H](C)NC(=O)[C@H](CCCCN)NC(=O)CNC(=O)[C@@H](N)CCCCN)C(=O)N[C@@H](C)C(=O)N[C@@H](Cc1ccccc1)C(=O)N[C@@H](C)C(=O)N[C@@H](CCCCN)C(=O)O [3102.0176] (H-KGKAAAFAK-OH) | 3.1 |
| CC(C)C[C@H](NC(=O)[C@H](C)NC(=O)[C@@H](N)CO)C(=O)N[C@@H](Cc1ccc(O)cc1)C(=O)N[C@@H](CO)C(=O)N[C@@H](Cc1ccc(O)cc1)C(=O)N[C@@H](C)C(=O)N[C@@H](CO)C(=O)N[C@@H](C)C(=O)O [3102.0177] (H-SALYSYASA-OH) | 37 |
| CC(C)C[C@H](NC(=O)[C@H](CO)NC(=O)[C@H](CC(C)C)NC(=O)[C@H](CS)NC(=O)[C@H](CCCNC(=N)N)NC(=O)[C@H](CO)NC(=O)[C@@H](N)CS)C(=O)N[C@@H](Cc1ccccc1)C(=O)N[C@@H](Cc1ccc(O)cc1)C(=O)O [3102.0178] (H-CSRCLSLFY-OH) | 22 |
| CC(C)C[C@H](NC(=O)[C@H](C)NC(=O)[C@H](Cc1ccc(O)cc1)NC(=O)[C@H](CCCNC(=N)N)NC(=O)[C@@H](NC(=O)[C@@H](N)CC(C)C)[C@@H](C)O)C(=O)N[C@@H](Cc1c[nH]cn1)C(=O)NCC(=O)N[C@@H](CCCCN)C(=O)O [3102.0179] (H-LTRYALHGK-OH) | 0.25 |
| CC[C@H](C)[C@H](NC(=O)[C@@H](NC(=O)[C@H](CO)NC(=O)[C@H](CCCNC(=N)N)NC(=O)[C@H](CC(C)C)NC(=O)[C@H](CO)NC(=O)[C@@H](N)CCSC)[C@@H](C)O)C(=O)N[C@H](C(=O)N[C@@H](CCCCN)C(=O)O)[C@@H](C)CC [3102.0180] (H-MSLRSTIIK-OH) | 37 |
| CC(C)C[C@H](NC(=O)[C@H](CC(C)C)NC(=O)[C@H](Cc1ccc(O)cc1)NC(=O)[C@@H](NC(=O)[C@H](C)NC(=O)[C@H](CCCCN)NC(=O)[C@@H](NC(=O)[C@@H](N)C(C)C)C(C)C)[C@@H](C)O)C(=O)N[C@@H](CCCCN)C(=O)O [3102.0181] (H-VVKATYLLK-OH) | 0.32 |
